Results reported in ChEMBL document CHEMBL1201862, “PubChem BioAssay data set” (2004).
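In this assay, cells in 96-well plates receive the compound at five concentrations for 48 hours. Endpoints are linearly interpolated between the surrounding concentrations. GI50: concentration for 50% inhibition of growth.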 The source made the active and inactive calls. No stated cut-off is given here; in the data, active = GI50 up to about 1.1 µM and inactive = higher.

What was measured:
Assay in all cases: inhibition of tumour cell growth, NCI panel, 48 h
786-0 = test system: 786-0
A498 = test system: A498
A549 = test system: A549
ACHN = test system: ACHN
CCRF-CEM = test system: CCRF-CEM
COLO 205 = test system: COLO 205
DLD-1 = test system: DLD-1
DMS-114 = test system: DMS-114
DMS-273 = test system: DMS-273
EKVX = test system: EKVX
HCC 2998 = test system: HCC 2998
HCT-116 = test system: HCT-116
HCT-15 = test system: HCT-15
HL-60 = test system: HL-60
HOP-18 = test system: HOP-18
HOP-62 = test system: HOP-62
HOP-92 = test system: HOP-92
HT-29 = test system: HT-29
IGROV-1 = test system: IGROV-1
K562 = test system: K562
KM-20L2 = test system: KM-20L2
KM12 = test system: KM12
LOX IMVI = test system: LOX IMVI
LXFL 529 = test system: LXFL 529
M14 = test system: M14
M19-MEL = test system: M19-MEL
MOLT-4 = test system: MOLT-4
Malme-3M = test system: Malme-3M
NCI-H226 = test system: NCI-H226
NCI-H23 = test system: NCI-H23
NCI-H460 = test system: NCI-H460
OVCAR-3 = test system: OVCAR-3
OVCAR-4 = test system: OVCAR-4
OVCAR-5 = test system: OVCAR-5
OVCAR-8 = test system: OVCAR-8
RPMI-8226 = test system: RPMI-8226
RXF 393 = test system: RXF 393
SF-268 = test system: SF-268
SF-295 = test system: SF-295
SF-539 = test system: SF-539
SK-MEL-28 = test system: SK-MEL-28
SK-MEL-2 = test system: SK-MEL-2
SK-MEL-5 = test system: SK-MEL-5
SK-OV-3 = test system: SK-OV-3
SN12C = test system: SN12C
SNB-19 = test system: SNB-19
SNB-75 = test system: SNB-75
SNB-78 = test system: SNB-78
SR = test system: SR
SW-620 = test system: SW-620
TK-10 = test system: TK-10
U-251 = test system: U-251
UACC-257 = test system: UACC-257
UACC-62 = test system: UACC-62
UO-31 = test system: UO-31
XF498 = test system: XF498
CAKI-1 = test system: CAKI-1
RXF 631 = test system: RXF 631
MCF7 = test system: MCF7
NCI-H522 = test system: NCI-H522
NCI/ADR-RES = test system: NCI/ADR-RES

Measured: GI50

CC(C)[C@@H]1C=C(c2ccccc2)c2ccccc2C1C(C#N)(C#N)C(C)C (stereo not given in full)
> 100 µM: HCT-15
inactive: 786-0 > 100 µM | A498 > 100 µM | A549 79.4 µM | ACHN > 100 µM | CCRF-CEM > 100 µM | COLO 205 > 100 µM | DLD-1 > 100 µM | DMS-114 97.7 µM | DMS-273 48.6 µM | EKVX > 100 µM | HCC 2998 90.4 µM | HCT-116 32.9 µM | HL-60 31.7 µM | HOP-18 > 100 µM | HOP-62 > 100 µM | HOP-92 > 100 µM | HT-29 68.7 µM | IGROV-1 > 100 µM | K562 38.2 µM | KM-20L2 > 100 µM | KM12 > 100 µM | LOX IMVI > 100 µM | LXFL 529 > 100 µM | M14 > 100 µM | M19-MEL > 100 µM | MOLT-4 48.6 µM | Malme-3M > 100 µM | NCI-H226 > 100 µM | NCI-H23 76 µM | NCI-H460 > 100 µM | OVCAR-3 78.9 µM | OVCAR-4 82.4 µM | OVCAR-5 > 100 µM | OVCAR-8 > 100 µM | RPMI-8226 19 µM | RXF 393 > 100 µM | SF-268 > 100 µM | SF-295 > 100 µM | SF-539 > 100 µM | SK-MEL-28 > 100 µM | SK-MEL-2 > 100 µM | SK-MEL-5 39.7 µM | SK-OV-3 > 100 µM | SN12C > 100 µM | SNB-19 > 100 µM | SNB-75 > 100 µM | SNB-78 > 100 µM | SR 46.3 µM | SW-620 > 100 µM | TK-10 > 100 µM | U-251 > 100 µM | UACC-257 54.5 µM | UACC-62 > 100 µM | UO-31 > 100 µM | XF498 45 µM

COCN1COCN(C)C1=O
> 100 µM: HCT-15
inactive: 786-0 > 100 µM | A498 > 100 µM | A549 > 100 µM | ACHN > 100 µM | CAKI-1 > 100 µM | CCRF-CEM > 100 µM | COLO 205 > 100 µM | DLD-1 > 100 µM | DMS-114 > 100 µM | DMS-273 > 100 µM | EKVX > 100 µM | HCC 2998 > 100 µM | HCT-116 > 100 µM | HOP-18 > 100 µM | HOP-62 > 100 µM | HOP-92 > 100 µM | HT-29 > 100 µM | IGROV-1 > 100 µM | K562 > 100 µM | KM-20L2 > 100 µM | KM12 > 100 µM | LOX IMVI > 100 µM | M14 > 100 µM | M19-MEL > 100 µM | Malme-3M > 100 µM | NCI-H226 > 100 µM | NCI-H23 > 100 µM | NCI-H460 > 100 µM | OVCAR-3 > 100 µM | OVCAR-4 > 100 µM | OVCAR-5 > 100 µM | OVCAR-8 > 100 µM | RPMI-8226 > 100 µM | SF-268 > 100 µM | SF-295 > 100 µM | SF-539 > 100 µM | SK-MEL-28 > 100 µM | SK-MEL-2 > 100 µM | SK-MEL-5 > 100 µM | SK-OV-3 > 100 µM | SN12C > 100 µM | SNB-19 > 100 µM | SNB-75 > 100 µM | SNB-78 > 100 µM | SW-620 > 100 µM | TK-10 > 100 µM | U-251 > 100 µM | UACC-257 > 100 µM | UACC-62 > 100 µM | UO-31 > 100 µM | XF498 > 100 µM

COc1ccc(CC2NCCc3c2[nH]c2ccccc32)cc1 (stereo not given)
52.4 µM: HCT-15
inactive: 786-0 > 100 µM | A498 > 100 µM | A549 > 100 µM | ACHN 66.8 µM | CCRF-CEM 46.2 µM | COLO 205 17.4 µM | DLD-1 > 100 µM | DMS-114 33.1 µM | DMS-273 26.5 µM | EKVX > 100 µM | HCC 2998 23.7 µM | HCT-116 40 µM | HL-60 22.4 µM | HOP-62 > 100 µM | HOP-92 16 µM | HT-29 28.3 µM | IGROV-1 83 µM | K562 32.6 µM | KM-20L2 33.7 µM | KM12 58.1 µM | LOX IMVI 42 µM | LXFL 529 62.4 µM | M14 41.6 µM | M19-MEL 71.4 µM | MOLT-4 31.9 µM | NCI-H226 > 100 µM | NCI-H460 35.6 µM | OVCAR-3 64.6 µM | OVCAR-4 54 µM | OVCAR-5 > 100 µM | OVCAR-8 > 100 µM | RPMI-8226 30.4 µM | RXF 631 25.3 µM | SF-268 79.6 µM | SF-295 96.6 µM | SF-539 42.1 µM | SK-MEL-28 > 100 µM | SK-MEL-2 > 100 µM | SK-MEL-5 40.9 µM | SK-OV-3 > 100 µM | SN12C 40.9 µM | SNB-19 > 100 µM | SNB-75 39.1 µM | SNB-78 70.6 µM | SW-620 51.9 µM | TK-10 > 100 µM | U-251 82 µM | UACC-62 > 100 µM | UO-31 41.5 µM | XF498 16.9 µM

Cc1cc(O)c2c(c1)C(=O)c1c(c(O)cc(O)c1-c1c(O)cc(O)c3c1C(=O)c1cc(C)cc(O)c1C3=O)C2=O [SKYRIN]
inactive: A498 14.4 µM | A549 8.87 µM | CAKI-1 16.8 µM | CCRF-CEM 7.6 µM | COLO 205 24.8 µM | DLD-1 8.75 µM | DMS-114 16.7 µM | DMS-273 7.76 µM | EKVX 11.9 µM | HCC 2998 11.4 µM | HCT-116 8.99 µM | HL-60 7.11 µM | HOP-18 10.4 µM | HOP-62 12.4 µM | HOP-92 13.1 µM | HT-29 13.1 µM | IGROV-1 12.9 µM | K562 7.87 µM | KM-20L2 16.3 µM | KM12 9.08 µM | LOX IMVI 12.9 µM | M19-MEL 17.1 µM | MCF7 15 µM | MOLT-4 8.59 µM | Malme-3M 15 µM | NCI-H226 3.07 µM | NCI-H23 13.1 µM | NCI-H460 9.08 µM | NCI-H522 17.1 µM | NCI/ADR-RES 35.2 µM | OVCAR-3 6.31 µM | OVCAR-4 10.9 µM | OVCAR-5 38 µM | OVCAR-8 8.26 µM | RPMI-8226 5.93 µM | RXF 393 19.3 µM | SF-268 13.9 µM | SF-295 9.25 µM | SF-539 10.6 µM | SK-MEL-28 11.7 µM | SK-MEL-2 11.5 µM | SK-MEL-5 9.44 µM | SK-OV-3 32.4 µM | SN12C 10.6 µM | SNB-19 2.5 µM | SNB-75 15.8 µM | SNB-78 26.9 µM | SW-620 14.4 µM | U-251 8.36 µM | UACC-257 17.5 µM | UACC-62 10.4 µM | UO-31 5.26 µM | XF498 21.1 µM
8.61 µM: HCT-15

CC(=O)Oc1ccc(O)c(O)c1C/C=C(\C)CC/C=C(\C)CC/C=C(\C)CCC=C(C)C [TETRAPRENYLPHENOLSUILLIN]
active: 786-0 1.1 µM | A549 0.34 µM | ACHN 0.275 µM | COLO 205 0.157 µM | DLD-1 0.34 µM | DMS-114 0.35 µM | DMS-273 0.246 µM | HCC 2998 0.871 µM | HCT-116 0.287 µM | HOP-18 0.187 µM | HOP-92 0.309 µM | HT-29 0.338 µM | KM-20L2 0.946 µM | KM12 0.476 µM | LOX IMVI 0.247 µM | LXFL 529 0.284 µM | M19-MEL 0.393 µM | Malme-3M 0.274 µM | NCI-H226 0.692 µM | NCI-H23 0.429 µM | NCI-H460 0.365 µM | OVCAR-4 0.426 µM | OVCAR-5 0.596 µM | OVCAR-8 0.392 µM | SF-268 0.446 µM | SF-295 0.746 µM | SF-539 0.407 µM | SK-MEL-28 0.656 µM | SN12C 0.272 µM | SNB-19 0.424 µM | SNB-75 0.439 µM | SNB-78 0.272 µM | SR 0.0564 µM | SW-620 0.3 µM | U-251 0.346 µM | UACC-257 0.65 µM | XF498 0.357 µM
inactive: CAKI-1 2.65 µM | EKVX 1.55 µM | HL-60 1.39 µM | HOP-62 1.24 µM | M14 1.51 µM | NCI-H522 1.51 µM | RXF 393 1.2 µM | SK-MEL-2 1.16 µM | TK-10 1.32 µM | UO-31 1.42 µM
